Reference: the NIST ThermoML archive (doi:10.1021/je700260f)

Conditions: Liquid, Vibrating tube method

FC(C(F)(F)F)C(F)(F)F [1,1,1,2,3,3,3-heptafluoropropane]
Conditions	mass density [kg/m3]
333.14 K, 28231 kPa	1431.3
333.14 K, 28261 kPa	1431.4
333.14 K, 28291 kPa	1431.5
333.14 K, 28321 kPa	1431.5
333.14 K, 28346 kPa	1431.8
333.14 K, 28383 kPa	1431.9
333.14 K, 28426 kPa	1432.1
333.14 K, 28453 kPa	1432.3
333.14 K, 29468 kPa	1436.5
333.14 K, 29504 kPa	1436.7
333.14 K, 29539 kPa	1436.8
333.14 K, 29570 kPa	1437.1
333.14 K, 29596 kPa	1437.2
333.14 K, 29621 kPa	1437.1
333.14 K, 29660 kPa	1437.3
333.14 K, 29724 kPa	1437.5
333.14 K, 29789 kPa	1437.8
333.14 K, 29825 kPa	1437.9
333.14 K, 29848 kPa	1438.1
333.14 K, 29883 kPa	1438.3
333.14 K, 29910 kPa	1438.4
333.14 K, 29946 kPa	1438.5
333.14 K, 29982 kPa	1438.6
333.14 K, 30013 kPa	1438.8
333.14 K, 30054 kPa	1439.1
333.14 K, 30122 kPa	1439.3
333.14 K, 30215 kPa	1439.6
333.14 K, 30241 kPa	1439.8
333.14 K, 30272 kPa	1440
333.14 K, 30958 kPa	1442.6
333.14 K, 31004 kPa	1442.8
333.14 K, 31030 kPa	1443
333.14 K, 31064 kPa	1443.2
333.14 K, 31094 kPa	1443.2
333.14 K, 31125 kPa	1443.4
333.14 K, 31155 kPa	1443.4
333.14 K, 31190 kPa	1443.7
333.14 K, 31220 kPa	1443.6
333.14 K, 31247 kPa	1443.9
333.14 K, 31285 kPa	1444
333.14 K, 31317 kPa	1444
333.14 K, 31349 kPa	1444.1
333.14 K, 31380 kPa	1444.4
333.14 K, 31423 kPa	1444.5
333.14 K, 31458 kPa	1444.7
333.14 K, 31490 kPa	1444.8
333.14 K, 31523 kPa	1445
333.14 K, 31566 kPa	1445.1
333.14 K, 31598 kPa	1445.3
333.14 K, 31630 kPa	1445.3
333.14 K, 31662 kPa	1445.5
333.14 K, 31694 kPa	1445.6
333.14 K, 31730 kPa	1445.8
333.14 K, 31758 kPa	1445.8
333.14 K, 31790 kPa	1446
333.14 K, 31827 kPa	1446.1
333.14 K, 31857 kPa	1446.3
333.14 K, 31894 kPa	1446.5
333.14 K, 31930 kPa	1446.5
333.14 K, 31957 kPa	1446.6
333.14 K, 32003 kPa	1446.7
333.14 K, 32036 kPa	1446.9
333.14 K, 32069 kPa	1447
333.14 K, 32103 kPa	1447.2
333.14 K, 32135 kPa	1447.4
333.14 K, 32168 kPa	1447.4
333.14 K, 32197 kPa	1447.6
333.14 K, 32240 kPa	1447.7
333.14 K, 32275 kPa	1447.7
333.14 K, 32318 kPa	1448
333.14 K, 32349 kPa	1448.2
333.14 K, 32394 kPa	1448.3
333.14 K, 32422 kPa	1448.5
333.14 K, 32458 kPa	1448.6
333.14 K, 32486 kPa	1448.7
333.14 K, 32524 kPa	1448.8
333.14 K, 32553 kPa	1448.9
333.14 K, 32585 kPa	1449.1
333.14 K, 32614 kPa	1449.2
333.14 K, 32648 kPa	1449.3
333.14 K, 32678 kPa	1449.5
333.14 K, 32707 kPa	1449.5
333.14 K, 32736 kPa	1449.7
333.14 K, 32768 kPa	1449.9
333.14 K, 32811 kPa	1449.9
333.14 K, 32840 kPa	1450.1
333.14 K, 32883 kPa	1450.3
333.14 K, 33794 kPa	1453.9
333.14 K, 33829 kPa	1453.8
333.14 K, 33872 kPa	1453.9
333.14 K, 33907 kPa	1454.1
333.14 K, 34179 kPa	1455.3
333.14 K, 34220 kPa	1455.1
333.14 K, 34250 kPa	1455.4
333.14 K, 34294 kPa	1455.5
333.14 K, 34336 kPa	1455.9
333.14 K, 34376 kPa	1455.8
333.14 K, 34409 kPa	1456
333.15 K, 6283 kPa	1289.9
333.15 K, 6309 kPa	1290.2
333.15 K, 6346 kPa	1290.5
333.15 K, 6386 kPa	1291
333.15 K, 6413 kPa	1291.3
333.15 K, 6442 kPa	1291.6
333.15 K, 6789 kPa	1295.3
333.15 K, 6821 kPa	1295.6
333.15 K, 6856 kPa	1296
333.15 K, 6887 kPa	1296.2
333.15 K, 6965 kPa	1297
333.15 K, 7009 kPa	1297.4
333.15 K, 8110 kPa	1308.2
333.15 K, 8143 kPa	1308.5
333.15 K, 8176 kPa	1308.8
333.15 K, 8204 kPa	1309.2
333.15 K, 8236 kPa	1309.5
333.15 K, 8273 kPa	1309.8
333.15 K, 8298 kPa	1310.1
333.15 K, 8328 kPa	1310.3
333.15 K, 8357 kPa	1310.6
333.15 K, 8395 kPa	1311
333.15 K, 8425 kPa	1311.2
333.15 K, 8467 kPa	1311.5
333.15 K, 8497 kPa	1311.8
333.15 K, 8538 kPa	1312.3
333.15 K, 8560 kPa	1312.4
333.15 K, 8592 kPa	1312.8
333.15 K, 8622 kPa	1313
333.15 K, 8665 kPa	1313.3
333.15 K, 8701 kPa	1313.7
333.15 K, 8732 kPa	1313.9
333.15 K, 8768 kPa	1314.3
333.15 K, 8804 kPa	1314.6
333.15 K, 8846 kPa	1314.9
333.15 K, 8884 kPa	1315.2
333.15 K, 8912 kPa	1315.8
333.15 K, 8940 kPa	1316
333.15 K, 9044 kPa	1316.8
333.15 K, 9087 kPa	1317.2
333.15 K, 9121 kPa	1317.5
333.15 K, 9164 kPa	1317.9
333.15 K, 9196 kPa	1318
333.15 K, 9219 kPa	1318.3
333.15 K, 9251 kPa	1318.6
333.15 K, 9270 kPa	1318.8
333.15 K, 9294 kPa	1319
333.15 K, 9321 kPa	1319.3
333.15 K, 9349 kPa	1319.5
333.15 K, 9370 kPa	1319.7
333.15 K, 9402 kPa	1319.9
333.15 K, 9422 kPa	1320.1
333.15 K, 9455 kPa	1320.4
333.15 K, 9483 kPa	1320.7
333.15 K, 9512 kPa	1320.9
333.15 K, 9533 kPa	1321.1
333.15 K, 9552 kPa	1321.1
333.15 K, 9578 kPa	1321.4
333.15 K, 9599 kPa	1321.5
333.15 K, 9631 kPa	1321.9
333.15 K, 9652 kPa	1322.1
333.15 K, 9684 kPa	1322.3
333.15 K, 9713 kPa	1322.7
333.15 K, 9737 kPa	1322.8
333.15 K, 10680 kPa	1330.6
333.15 K, 10703 kPa	1330.9
333.15 K, 10737 kPa	1331
333.15 K, 10763 kPa	1331.3
333.15 K, 10786 kPa	1331.6
333.15 K, 10813 kPa	1331.6
333.15 K, 11004 kPa	1333.2
333.15 K, 11030 kPa	1333.5
333.15 K, 11055 kPa	1333.5
333.15 K, 11083 kPa	1333.8
333.15 K, 11507 kPa	1337.2
333.15 K, 11567 kPa	1337.7
333.15 K, 11594 kPa	1337.8
333.15 K, 11620 kPa	1338
333.15 K, 11651 kPa	1338.3
333.15 K, 11678 kPa	1338.4
333.15 K, 11705 kPa	1338.6
333.15 K, 11734 kPa	1338.8
333.15 K, 11757 kPa	1339
333.15 K, 12501 kPa	1344.5
333.15 K, 12533 kPa	1344.8
333.15 K, 12561 kPa	1345
333.15 K, 12589 kPa	1345.2
333.15 K, 12616 kPa	1345.4
333.15 K, 12648 kPa	1345.7
333.15 K, 12675 kPa	1345.9
333.15 K, 12698 kPa	1346.1
333.15 K, 12730 kPa	1346.2
333.15 K, 12754 kPa	1346.4
333.15 K, 12789 kPa	1346.6
333.15 K, 12823 kPa	1347
333.15 K, 12846 kPa	1347.1
333.15 K, 13551 kPa	1352.2
333.15 K, 13574 kPa	1352.3
333.15 K, 13601 kPa	1352.5
333.15 K, 13746 kPa	1353.4
333.15 K, 13772 kPa	1353.6
333.15 K, 13801 kPa	1353.7
333.15 K, 13830 kPa	1354.1
333.15 K, 13863 kPa	1354.3
333.15 K, 13893 kPa	1354.5
333.15 K, 14170 kPa	1356.5
333.15 K, 14195 kPa	1356.8
